Measured values: patent publication US6949571B2, “1,2-dihydropyridine compounds, process for preparation of the same and use thereof” (Eisai Co., Ltd., priority 2000, dated 2005)

Each compound was assayed on AMPA receptor. Details: Table 1; primary culture of rat embryo cerebral cortex nerve cells, 2 μM AMPA, 1 μM MK-801.
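Note: primary rat embryonic cortical neurons grown on an astrocyte layer in 96-well plates, used after at least 8 to 10 days in culture, Fura2-AM fluorescence ratio at 340/380 nm excitation.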

SMILES | IC50
O=c1c(-c2ccccc2)cc(-c2ccccc2)cn1-c1ccccn1 [Example 37, 3,5-Diphenyl-1-(2-pyridyl)-1,2-dihydropyridin-2-one] | 700 nM
O=c1c(-c2ccccc2)cc(-c2ccccn2)cn1-c1cccc(F)c1 [Example 97, 3-Phenyl-5-(2-pyridyl)-1-(3-fluorophenyl)-1,2-dihydropyridin-2-one] | 400 nM
N#Cc1ccccc1-c1cc(-c2ccccn2)cn(-c2cccc(C(F)(F)F)c2)c1=O [Example 104, 3-(2-Cyanophenyl)-5-(2-pyridyl)-1-(3-trifluoromethylphenyl)-1,2-dihydropyridin-2-one] | 200 nM
COc1ccc(-n2cc(-c3ccccn3)cc(-c3ccccc3C#N)c2=O)cc1 [Example 95, 3-(2-Cyanophenyl)-5-(2-pyridyl)-1-(4-methoxyphenyl)-1,2-dihydropyridin-2-one] | 300 nM
N#Cc1ccccc1-c1cc(-c2ccsc2CO)cn(-c2ccccc2)c1=O [Example 30, 3-(2-Cyanophenyl)-5-(2-hydroxymethylthiophen-3-yl)-1-phenyl-1,2-dihydropyridin-2-one] | 40 nM
COc1ccc(-c2cc(-c3ccccn3)cn(-c3ccccc3)c2=O)cc1 [Example 70, 3-(4-Methoxyphenyl)-5-(2-pyridyl)-1-phenyl-1,2-dihydropyridin-2-one] | 3100 nM
N#Cc1ccccc1-c1cc(-c2ccsc2)cn(-c2ccccc2)c1=O [Example 44, 3-(2-Cyanophenyl)-5-(thiophen-3-yl)-1-phenyl-1,2-dihydropyridin-2-one] | 300 nM
N#Cc1ccccc1-c1cc(-c2ccccn2)cn(-c2ccc(Cl)nc2)c1=O [Example 120, 3-(2-Cyanophenyl)-5-(2-pyridyl)-1-(2-chloropyridin-5-yl)-1,2-dihydropyridin-2-one] | 200 nM

Same assay, conditions: Table 2; suppression of AMPA-induced calcium influx into nerve cells

IC50 | SMILES
4200 nM | CC(=O)Nc1cccc(-c2cc(-c3ccccc3C#N)c(=O)n(-c3ccccc3)c2)n1 [Example 229, 5-[(6-Acetylamino)pyridin-2-yl]-3-(2-cyanophenyl)-1-phenyl-1,2-dihydropyridin-2-one]
400 nM | O=c1c(-c2cccc(O)n2)cc(-c2ccccn2)cn1-c1ccccc1 [Example 165, 3-(2-Hydroxypyridin-6-yl)-1-phenyl-5-(2-pyridyl)-1,2-dihydropyridin-2-one]
1600 nM | O=c1c(-c2ccccc2CO)cc(-c2ccccn2)cn1-c1ccccc1 [Example 147, 3-(2-Hydroxymethylphenyl)-5-(2-pyridyl)-1-phenyl-1,2-dihydropyridin-2-one]
2300 nM | O=c1c(-c2ccccc2Cl)cc(-c2nc3ccccc3o2)cn1-c1ccccc1 [Example 184, 3-(2-Chlorophenyl)-5-(2-benzoxazolyl)-1-phenyl-1,2-dihydropyridin-2-one]
500 nM | CC(C)N(CCOc1cccc(-n2cc(-c3ccccn3)cc(-c3ccccc3C#N)c2=O)c1)C(C)C [Example 242, 3-(2-Cyanophenyl)-1-[3-(diisopropylaminoethoxy)phenyl]-5-(2-pyridyl)-1,2-dihydropyridin-2-one]
400 nM | Cc1nc(-c2ccccc2-c2cc(-c3ccccn3)cn(-c3ccccc3)c2=O)no1 [Example 193, 3-[2-(5-Methyl-1,2,4-oxadiazol-3-yl)phenyl]-1-phenyl-5-(2-pyridyl)-1,2-dihydropyridin-2-one]

SMILES | IC50
N#Cc1ccccc1-c1cc(-c2ccccn2)cn(-c2ccc(N)cc2)c1=O [Example 215, 1-(4-Aminophenyl)-3-(2-cyanophenyl)-5-(2-pyridyl)-1,2-dihydropyridin-2-one] | 100 nM

Same assay, conditions: Table 3; primary culture of rat embryo cerebral cortex nerve cells, 2 μM AMPA, 1 μM MK-801

SMILES | IC50
O=c1c(-n2cccc2)cc(-c2ccccn2)cn1-c1ccccc1 [Example 320, 3-(Pyrrol-1-yl)-5-(2-pyridyl)-1-phenyl-1,2-dihydropyridin-2-one] | 2300 nM
Cc1cccc2[nH]c(-c3cc(-c4ccccc4C#N)c(=O)n(-c4ccccc4)c3)nc12 [Example 352, 3-(2-Cyanophenyl)-5-(4-methyl-1H-benzimidazol-2-yl)-1-phenyl-1,2-dihydropyridin-2-one] | 1600 nM
